Assay results reported in US12134604B1, “1-[4,5-bis(4-chlorophenyl)-1-hexyl-1H-imidazol-2-yl]-2-naphthol as an antimicrobial compound” (KING FAISAL UNIVERSITY, priority 2023, dated 2024).

How the values were obtained:
Format in all cases: cell-based
Details in all cases: after 10, 20, 40 and 60 minutes at all dilutions 1:100, 1:200, 1:400, 1:800 (summary in words)
[1] = system: Staphylococcus aureus; assay: Antimicrobial screening by agar dilution, Staphylococcus aureus
Procedure: (§1) The antimicrobial properties of the 1-[4,5-bis(4-chlorophenyl)-1-hexyl-1H-imidazol-2-yl]-2-naphthol was studied by the method of agar dilution. Test solutions of each compound was prepared in concentration of 1% using dimethylformamide as a solvent then they are diluted in physiological solution to obtain the final experimental dilutions 1:100, 1:200, 1:400, 1:800. The effect of these substances are compared with furacillin in a controlled study. The testing microbes used were gram positive bacteria Staphylococcus aureus, gram negative bacteria Pseudomonas aeruginosa and Escherichia coli and Candida albicans fungi were taken. The experiments used for this survey were meat-pentonlu agar (EPA) for cultivation of bacteria and Saburo environment for fungi. Each experiment used 1 ml of test solution on each plate 500 min. Add 2 drops of emulsified with microbes feel. All experimental samples were taken from the agar after 10, 20, 40, 60 minutes in the environment on the basis of Patrk planted. Bacteria were cultivated at a temperature of 37° C. for 1 day and the mushroom was kept in a thermostat for […] at a temperature of 28° C. in the. Then results were checked.

[2] = system: Escherichia coli; assay: Antimicrobial screening by agar dilution, Escherichia coli
Procedure: as §1

[3] = system: Pseudomonas aeruginosa; assay: Antimicrobial screening by agar dilution, Pseudomonas aeruginosa
Procedure: as §1

[4] = system: Candida albicans; assay: Antimicrobial (antifungal) screening by agar dilution, Candida albicans
Procedure: as §1

Measured: inhibition activity

CCCCCCn1c(-c2c(O)ccc3ccccc23)nc(-c2ccc(Cl)cc2)c1-c1ccc(Cl)cc1 [1-[4,5-bis(4-chlorophenyl)-1-hexyl-1H-imidazol-2-yl]-2-naphthol]
highest inhibition activity: all assays above
